What was measured:
Experiment in all cases: Kinase selectivity screen
Assay type in all cases: biochemical
S6K1 = S6K1 (Homo sapiens, UniProt P23443); conditions: S6K1, 10 μM
Method: (§1) The substantially less demanding synthesis of ICL-CCIC-0019 compared with MN58B bears additional advantages. […] This consequently diminished intracellular PCho concentration, and importantly, the incorporation of [^3H]-choline into lipids (Figure 1D). […] To assess kinase specificity, ICL-CCIC-0019 was tested against a panel of 131 human kinases (Figure 1E and Supplementary Table S1). […] Inhibition greater than 20% was attained for insulin-like growth factor 1 (IGF-1R, 35 ± 7% inhibition), mitogen-activated protein kinase-activated protein kinase 3 (MAPKAP-K3, 33 ± 6%), extracellular signal regulated kinase 8 (ERK8, 31 ± 4%), ribosomal S6 kinase 1 (RSK1, 22 ± 6%), and v-erb-a erythroblastic leukemia viral oncogene homolog 4 (HER4, 21 ± 7%).

p38g MAPK = p38g MAPK (Homo sapiens, UniProt P53778)
Method: as §1

PKBb = PKBb (Homo sapiens, UniProt P31751)
Method: as §1

TTK = TTK (Homo sapiens, UniProt P33981)
Method: as §1

ROCK 2 = ROCK 2 (Homo sapiens, UniProt O75116); conditions: ROCK 2, 10 μM
Method: as §1

EPH-B2 = EPH-B2 (Homo sapiens, UniProt P29323); conditions: EPH-B2, 10 μM
Method: as §1

TIE2 = TIE2 (Homo sapiens, UniProt Q02763); conditions: TIE2, 10 μM
Method: as §1

MARK1 = MARK1 (Homo sapiens, UniProt Q9P0L2); conditions: MARK1, 10 μM
Method: as §1

p38b MAPK = p38b MAPK (Homo sapiens, UniProt Q15759)
Method: as §1

ERK1 = ERK1 (Homo sapiens, UniProt P27361); conditions: ERK1, 10 μM
Method: as §1

ERK8 = ERK8 (Homo sapiens, UniProt Q8TD08); conditions: ERK8, 10 μM
Method: as §1

p38d MAPK = p38d MAPK (Homo sapiens, UniProt O15264)
Method: as §1

JNK3 = JNK3 (Homo sapiens, UniProt P53779); conditions: JNK3, 10 μM
Method: as §1

MSK1 = MSK1 (Homo sapiens, UniProt O75582); conditions: MSK1, 10 μM
Method: as §1

CDK9-Cyclin T1 = CDK9-Cyclin T1 (Homo sapiens, UniProt P50750); conditions: CDK9-Cyclin T1, 10 μM
Method: as §1

CLK2 = CLK2 (Homo sapiens, UniProt P49760); conditions: CLK2, 10 μM
Method: as §1

MLK1 = MLK1 (Homo sapiens, UniProt P80192); conditions: MLK1, 10 μM
Method: as §1

IKKe = IKKe (Homo sapiens, UniProt Q14164)
Method: as §1

RSK1 = RSK1 (Homo sapiens, UniProt Q15418); conditions: RSK1, 10 μM
Method: as §1

DYRK3 = DYRK3 (Homo sapiens, UniProt O43781); conditions: DYRK3, 10 μM
Method: as §1

CSK = CSK (Homo sapiens, UniProt P41240)
Method: as §1

MARK4 = MARK4 (Homo sapiens, UniProt Q96L34); conditions: MARK4, 10 μM
Method: as §1

MINK1 = MINK1 (Homo sapiens, UniProt Q8N4C8); conditions: MINK1, 10 μM
Method: as §1

BTK = BTK (Homo sapiens, UniProt Q06187)
Method: as §1

PDK1 = PDK1 (Homo sapiens, UniProt O15530); conditions: PDK1, 10 μM
Method: as §1

IGF-1R = IGF-1R (Homo sapiens, UniProt P08069)
Method: as §1

DDR2 = DDR2 (Homo sapiens, UniProt Q16832); conditions: DDR2, 10 μM
Method: as §1

VEG-FR = VEG-FR (Homo sapiens, UniProt P17948)
Method: as §1

NEK2a = NEK2a (Homo sapiens, UniProt P51955)
Method: as §1

PRK2 = PRK2 (Homo sapiens, UniProt Q16513); conditions: PRK2, 10 μM
Method: as §1

MPSK1 = MPSK1 (Homo sapiens, UniProt O75716); conditions: MPSK1, 10 μM
Method: as §1

ZAP70 = ZAP70 (Homo sapiens, UniProt P43403); conditions: ZAP70, 10 μM
Method: as §1

NUAK1 = NUAK1 (Homo sapiens, UniProt O60285); conditions: NUAK1, 10 μM
Method: as §1

SYK = SYK (Homo sapiens, UniProt P43405)
Method: as §1

OSR1 = OSR1 (Homo sapiens, UniProt O95747); conditions: OSR1, 10 μM
Method: as §1

ERK8, sequence (Q8TD08 whole entry): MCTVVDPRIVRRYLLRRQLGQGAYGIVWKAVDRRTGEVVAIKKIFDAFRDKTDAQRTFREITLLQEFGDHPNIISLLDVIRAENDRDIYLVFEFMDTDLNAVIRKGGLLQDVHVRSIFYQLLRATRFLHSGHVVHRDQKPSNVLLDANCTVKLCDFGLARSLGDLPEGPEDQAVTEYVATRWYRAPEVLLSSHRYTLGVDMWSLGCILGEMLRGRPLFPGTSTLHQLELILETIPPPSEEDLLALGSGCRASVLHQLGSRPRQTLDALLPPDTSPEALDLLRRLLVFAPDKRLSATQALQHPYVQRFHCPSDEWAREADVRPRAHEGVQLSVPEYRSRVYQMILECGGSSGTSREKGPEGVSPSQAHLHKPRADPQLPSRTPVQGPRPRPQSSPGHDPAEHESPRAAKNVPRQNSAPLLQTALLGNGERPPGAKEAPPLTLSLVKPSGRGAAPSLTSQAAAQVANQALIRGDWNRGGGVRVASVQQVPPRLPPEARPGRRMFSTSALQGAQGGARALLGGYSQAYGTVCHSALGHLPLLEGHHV
IGF-1R, sequence (P08069 31-1367): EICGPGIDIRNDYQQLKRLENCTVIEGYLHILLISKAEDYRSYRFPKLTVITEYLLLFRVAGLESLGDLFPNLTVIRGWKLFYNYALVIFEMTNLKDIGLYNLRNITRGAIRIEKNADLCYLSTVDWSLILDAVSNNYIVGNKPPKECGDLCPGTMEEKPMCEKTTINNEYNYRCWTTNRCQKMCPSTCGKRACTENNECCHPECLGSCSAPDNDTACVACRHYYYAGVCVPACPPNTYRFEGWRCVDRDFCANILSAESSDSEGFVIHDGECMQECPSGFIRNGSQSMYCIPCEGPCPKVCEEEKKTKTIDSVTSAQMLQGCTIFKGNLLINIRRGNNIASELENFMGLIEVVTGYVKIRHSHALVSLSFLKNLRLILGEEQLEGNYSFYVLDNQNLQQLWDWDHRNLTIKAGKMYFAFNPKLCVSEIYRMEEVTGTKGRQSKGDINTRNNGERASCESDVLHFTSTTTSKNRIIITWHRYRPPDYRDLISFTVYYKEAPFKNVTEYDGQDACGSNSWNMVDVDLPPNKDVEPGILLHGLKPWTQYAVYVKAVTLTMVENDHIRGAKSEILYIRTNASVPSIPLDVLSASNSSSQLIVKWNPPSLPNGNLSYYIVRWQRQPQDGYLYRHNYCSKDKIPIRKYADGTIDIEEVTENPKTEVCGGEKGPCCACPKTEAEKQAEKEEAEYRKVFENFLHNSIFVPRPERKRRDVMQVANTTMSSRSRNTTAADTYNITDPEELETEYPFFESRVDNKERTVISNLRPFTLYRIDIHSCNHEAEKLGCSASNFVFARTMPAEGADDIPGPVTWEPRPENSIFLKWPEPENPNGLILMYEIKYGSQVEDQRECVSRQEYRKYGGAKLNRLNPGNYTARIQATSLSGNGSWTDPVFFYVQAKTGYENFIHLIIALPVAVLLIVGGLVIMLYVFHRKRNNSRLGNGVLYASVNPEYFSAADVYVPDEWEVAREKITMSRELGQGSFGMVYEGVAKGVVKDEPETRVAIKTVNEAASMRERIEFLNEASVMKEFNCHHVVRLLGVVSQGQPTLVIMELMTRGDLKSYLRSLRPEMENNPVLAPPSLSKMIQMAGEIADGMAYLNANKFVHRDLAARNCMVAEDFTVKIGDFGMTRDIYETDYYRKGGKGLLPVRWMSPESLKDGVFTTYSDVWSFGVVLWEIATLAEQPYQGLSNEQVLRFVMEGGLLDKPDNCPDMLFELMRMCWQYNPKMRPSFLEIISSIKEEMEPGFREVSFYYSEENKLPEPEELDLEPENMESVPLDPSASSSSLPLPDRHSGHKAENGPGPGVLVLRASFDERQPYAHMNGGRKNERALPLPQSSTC
RSK1, sequence (Q15418 whole entry): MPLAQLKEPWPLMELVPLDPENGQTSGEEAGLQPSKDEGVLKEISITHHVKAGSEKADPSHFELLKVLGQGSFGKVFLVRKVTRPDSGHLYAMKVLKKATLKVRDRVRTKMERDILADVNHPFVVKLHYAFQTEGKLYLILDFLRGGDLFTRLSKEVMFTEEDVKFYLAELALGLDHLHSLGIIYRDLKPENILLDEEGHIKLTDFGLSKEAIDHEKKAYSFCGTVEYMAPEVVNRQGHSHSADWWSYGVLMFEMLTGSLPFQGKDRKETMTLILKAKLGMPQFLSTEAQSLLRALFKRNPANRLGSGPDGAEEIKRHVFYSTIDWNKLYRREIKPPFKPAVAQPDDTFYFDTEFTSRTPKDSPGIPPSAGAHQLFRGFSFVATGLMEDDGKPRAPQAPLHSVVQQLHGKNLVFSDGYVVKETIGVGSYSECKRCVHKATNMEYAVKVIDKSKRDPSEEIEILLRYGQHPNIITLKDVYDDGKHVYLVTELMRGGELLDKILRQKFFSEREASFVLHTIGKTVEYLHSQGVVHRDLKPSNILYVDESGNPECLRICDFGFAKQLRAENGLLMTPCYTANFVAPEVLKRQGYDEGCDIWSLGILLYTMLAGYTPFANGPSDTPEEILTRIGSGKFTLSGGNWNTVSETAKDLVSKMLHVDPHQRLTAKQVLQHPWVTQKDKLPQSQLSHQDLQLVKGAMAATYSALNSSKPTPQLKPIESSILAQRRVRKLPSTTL
CDK9-Cyclin T1, sequence (P50750 whole entry): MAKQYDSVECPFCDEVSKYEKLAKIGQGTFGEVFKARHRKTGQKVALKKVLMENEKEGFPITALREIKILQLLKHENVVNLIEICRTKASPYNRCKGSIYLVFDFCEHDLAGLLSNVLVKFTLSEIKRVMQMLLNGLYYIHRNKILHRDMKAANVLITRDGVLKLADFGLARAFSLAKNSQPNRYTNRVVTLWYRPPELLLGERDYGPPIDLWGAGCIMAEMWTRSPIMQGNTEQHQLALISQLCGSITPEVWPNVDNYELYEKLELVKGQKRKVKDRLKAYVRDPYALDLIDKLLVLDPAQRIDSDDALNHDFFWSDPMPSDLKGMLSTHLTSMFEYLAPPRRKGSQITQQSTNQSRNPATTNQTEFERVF
CDK9-Cyclin T1, sequence (O60563 whole entry partner): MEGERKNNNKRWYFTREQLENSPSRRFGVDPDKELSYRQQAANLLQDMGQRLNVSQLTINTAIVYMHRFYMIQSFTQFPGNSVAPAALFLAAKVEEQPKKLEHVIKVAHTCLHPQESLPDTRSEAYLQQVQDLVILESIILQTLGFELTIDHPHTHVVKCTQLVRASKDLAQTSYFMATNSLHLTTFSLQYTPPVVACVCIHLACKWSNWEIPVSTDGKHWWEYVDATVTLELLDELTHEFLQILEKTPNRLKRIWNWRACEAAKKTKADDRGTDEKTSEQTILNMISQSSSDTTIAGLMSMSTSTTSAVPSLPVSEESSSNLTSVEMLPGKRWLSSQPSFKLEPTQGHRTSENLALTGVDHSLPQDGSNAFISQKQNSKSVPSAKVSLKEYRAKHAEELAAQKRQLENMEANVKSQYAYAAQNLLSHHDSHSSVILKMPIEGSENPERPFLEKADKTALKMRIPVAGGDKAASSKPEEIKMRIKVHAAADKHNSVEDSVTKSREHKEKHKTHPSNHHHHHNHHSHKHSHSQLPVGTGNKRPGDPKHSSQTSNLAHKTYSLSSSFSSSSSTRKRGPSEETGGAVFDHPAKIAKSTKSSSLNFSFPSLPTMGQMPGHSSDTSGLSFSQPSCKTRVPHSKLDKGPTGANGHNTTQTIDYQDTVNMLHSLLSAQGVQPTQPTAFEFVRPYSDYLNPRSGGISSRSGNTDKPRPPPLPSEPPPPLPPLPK
ERK1, sequence (P27361 whole entry): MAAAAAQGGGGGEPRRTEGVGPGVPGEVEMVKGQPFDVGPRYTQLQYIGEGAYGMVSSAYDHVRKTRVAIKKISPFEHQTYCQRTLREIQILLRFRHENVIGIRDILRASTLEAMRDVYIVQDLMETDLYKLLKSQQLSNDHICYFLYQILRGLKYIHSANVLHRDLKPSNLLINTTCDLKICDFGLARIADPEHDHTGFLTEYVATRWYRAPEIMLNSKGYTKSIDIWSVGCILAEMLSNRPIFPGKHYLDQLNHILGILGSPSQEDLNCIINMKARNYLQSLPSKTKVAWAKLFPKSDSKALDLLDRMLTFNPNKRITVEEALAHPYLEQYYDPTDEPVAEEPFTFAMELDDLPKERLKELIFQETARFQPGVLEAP
DYRK3, sequence (O43781 whole entry): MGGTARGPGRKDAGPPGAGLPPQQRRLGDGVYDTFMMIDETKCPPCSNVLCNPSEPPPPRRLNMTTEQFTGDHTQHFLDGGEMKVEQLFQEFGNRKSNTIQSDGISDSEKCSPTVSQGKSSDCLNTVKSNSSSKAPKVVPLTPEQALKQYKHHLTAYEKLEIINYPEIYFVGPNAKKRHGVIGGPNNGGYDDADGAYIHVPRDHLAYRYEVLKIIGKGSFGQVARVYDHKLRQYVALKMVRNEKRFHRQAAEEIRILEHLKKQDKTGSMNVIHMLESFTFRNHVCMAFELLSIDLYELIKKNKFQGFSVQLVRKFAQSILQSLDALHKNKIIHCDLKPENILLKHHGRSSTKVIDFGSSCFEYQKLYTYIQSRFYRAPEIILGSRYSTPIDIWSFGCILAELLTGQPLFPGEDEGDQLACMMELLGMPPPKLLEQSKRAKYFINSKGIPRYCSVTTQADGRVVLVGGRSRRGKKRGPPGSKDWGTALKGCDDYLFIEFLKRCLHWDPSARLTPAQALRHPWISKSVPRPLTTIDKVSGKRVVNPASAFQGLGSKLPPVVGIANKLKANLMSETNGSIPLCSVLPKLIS
p38d MAPK, sequence (O15264 whole entry): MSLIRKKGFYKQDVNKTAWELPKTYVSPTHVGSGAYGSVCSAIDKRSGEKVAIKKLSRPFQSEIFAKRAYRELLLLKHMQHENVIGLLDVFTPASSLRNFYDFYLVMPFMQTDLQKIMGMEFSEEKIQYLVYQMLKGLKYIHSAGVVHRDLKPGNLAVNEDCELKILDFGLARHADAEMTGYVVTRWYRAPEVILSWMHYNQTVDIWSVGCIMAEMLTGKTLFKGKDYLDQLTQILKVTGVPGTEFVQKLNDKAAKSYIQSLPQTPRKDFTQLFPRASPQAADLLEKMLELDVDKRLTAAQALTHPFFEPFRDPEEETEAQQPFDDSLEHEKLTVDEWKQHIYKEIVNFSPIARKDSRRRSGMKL

Question: For `CN(C)c1cc[n+](CCCCCCCCCCCC[n+]2ccc(N(C)C)cc2)cc1` [ICL-CCIC-0019], which remaining activity at 10 µM (S6K1) is on record?
Answer: 88%

Question: And the remaining activity at 10 µM (p38g MAPK)?
Answer: 99%

Question: And the remaining activity at 10 µM (PKBb)?
Answer: 93%

Question: And the remaining activity at 10 µM (TTK)?
Answer: 101%

Question: And the remaining activity at 10 µM (ROCK 2)?
Answer: 97%

Question: What about the remaining activity at 10 µM (EPH-B2) of the same compound?
Answer: 90%

Question: And the remaining activity at 10 µM (TIE2)?
Answer: 89%

Question: What about the remaining activity at 10 µM (MARK1) of the same compound?
Answer: 103%

Question: What about the remaining activity at 10 µM (p38b MAPK) of the same compound?
Answer: 107%

Question: What about the remaining activity at 10 µM (ERK1) of the same compound?
Answer: 91%

Question: And the inhibition at 10 µM (ERK8)?
Answer: 31 ± 4%

Question: What about the remaining activity at 10 µM (ERK8) of the same compound?
Answer: 69%

Question: What about the remaining activity at 10 µM (p38d MAPK) of the same compound?
Answer: 100%

Question: What about the remaining activity at 10 µM (JNK3) of the same compound?
Answer: 92%

Question: And the remaining activity at 10 µM (MSK1)?
Answer: 96%

Question: And the remaining activity at 10 µM (CDK9-Cyclin T1)?
Answer: 95%

Question: What about the remaining activity at 10 µM (CLK2) of the same compound?
Answer: 101%

Question: And the remaining activity at 10 µM (MLK1)?
Answer: 91%

Question: What about the remaining activity at 10 µM (IKKe) of the same compound?
Answer: 123%

Question: And the inhibition at 10 µM (RSK1)?
Answer: 22 ± 6%

Question: And the remaining activity at 10 µM (RSK1)?
Answer: 78%

Question: What about the remaining activity at 10 µM (DYRK3) of the same compound?
Answer: 106%

Question: What about the remaining activity at 10 µM (CSK) of the same compound?
Answer: 96%

Question: What about the remaining activity at 10 µM (MARK4) of the same compound?
Answer: 95%

Question: What about the remaining activity at 10 µM (MINK1) of the same compound?
Answer: 100%

Question: What about the remaining activity at 10 µM (BTK) of the same compound?
Answer: 131%

Question: And the remaining activity at 10 µM (PDK1)?
Answer: 133%

Question: And the inhibition at 10 µM (IGF-1R)?
Answer: 35 ± 7%

Question: And the remaining activity at 10 µM (IGF-1R)?
Answer: 65%

Question: And the remaining activity at 10 µM (DDR2)?
Answer: 85%

Question: What about the remaining activity at 10 µM (VEG-FR) of the same compound?
Answer: 80%

Question: What about the remaining activity at 10 µM (NEK2a) of the same compound?
Answer: 101%

Question: And the remaining activity at 10 µM (PRK2)?
Answer: 94%

Question: And the remaining activity at 10 µM (MPSK1)?
Answer: 105%

Question: And the remaining activity at 10 µM (ZAP70)?
Answer: 102%

Question: What about the remaining activity at 10 µM (NUAK1) of the same compound?
Answer: 103%

Question: And the remaining activity at 10 µM (SYK)?
Answer: 92%

Question: What about the remaining activity at 10 µM (OSR1) of the same compound?
Answer: 99%
